Laboratory results reported in paper PMC6979384, “Characterization of the plant homeodomain (PHD) reader family for their histone tail interactions” (Epigenetics & Chromatin, 2020).
Where no end group is shown, it is not given here.

Assays:
Experiment in all cases: Histone peptide microarray
Assay type in all cases: binding, human
KDM5A (3) = conditions: sheet "Array Heatmap"; GST-tagged KDM5A (3); arrays performed twice, total replicate number n = 4
Summary of the method: (§1)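 Readout is array binding signal, reported as the mean and standard deviation over four replicates. Each purified GST-fused PHD domain was incubated at 0.5 μM with a library of 293 modified histone peptides.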

BPTF (PB) = conditions: sheet "Array Heatmap"; GST-tagged BPTF (PB); arrays performed twice, total replicate number n = 4
Summary of the method: as §1

DIDO1 = conditions: sheet "Array Heatmap"; GST-tagged DIDO1; arrays performed twice, total replicate number n = 4
Summary of the method: as §1

KDM7A = conditions: sheet "Array Heatmap"; GST-tagged KDM7A; arrays performed twice, total replicate number n = 4
Summary of the method: as §1

CHD5 (PCC) = conditions: sheet "Array Heatmap"; GST-tagged CHD5 (PCC); arrays performed twice, total replicate number n = 4
Summary of the method: as §1

CHD5 (PPCC) = conditions: sheet "Array Heatmap"; GST-tagged CHD5 (PPCC); arrays performed twice, total replicate number n = 4
Summary of the method: as §1

KDM5B (1) = conditions: sheet "Array Heatmap"; GST-tagged KDM5B (1); arrays performed twice, total replicate number n = 4
Summary of the method: as §1

ING2 = conditions: sheet "Array Heatmap"; GST-tagged ING2; arrays performed twice, total replicate number n = 4
Summary of the method: as §1

PHRF1 (RP) = conditions: sheet "Array Heatmap"; GST-tagged PHRF1 (RP); arrays performed twice, total replicate number n = 4
Summary of the method: as §1

SP140L = conditions: sheet "Array Heatmap"; GST-tagged SP140L; arrays performed twice, total replicate number n = 4
Summary of the method: as §1

KDM5A (1) = conditions: sheet "Array Heatmap"; GST-tagged KDM5A (1); arrays performed twice, total replicate number n = 4
Summary of the method: as §1

PHF2 = conditions: sheet "Array Heatmap"; GST-tagged PHF2; arrays performed twice, total replicate number n = 4
Summary of the method: as §1

TRIM66 (PB) = conditions: sheet "Array Heatmap"; GST-tagged TRIM66 (PB); arrays performed twice, total replicate number n = 4
Summary of the method: as §1

ING1 = conditions: sheet "Array Heatmap"; GST-tagged ING1; arrays performed twice, total replicate number n = 4
Summary of the method: as §1

MLL5 = conditions: sheet "Array Heatmap"; GST-tagged MLL5; arrays performed twice, total replicate number n = 4
Summary of the method: as §1

KDM5B (3) = conditions: sheet "Array Heatmap"; GST-tagged KDM5B (3); arrays performed twice, total replicate number n = 4
Summary of the method: as §1

PHF23 = conditions: sheet "Array Heatmap"; GST-tagged PHF23; arrays performed twice, total replicate number n = 4
Summary of the method: as §1

BAZ2B = conditions: sheet "Array Heatmap"; GST-tagged BAZ2B; arrays performed twice, total replicate number n = 4
Summary of the method: as §1

RAG2 = conditions: sheet "Array Heatmap"; GST-tagged RAG2; arrays performed twice, total replicate number n = 4
Summary of the method: as §1

PHF21A = conditions: sheet "Array Heatmap"; GST-tagged PHF21A; arrays performed twice, total replicate number n = 4
Summary of the method: as §1

PHF13 = conditions: sheet "Array Heatmap"; GST-tagged PHF13; arrays performed twice, total replicate number n = 4
Summary of the method: as §1

ING3 = conditions: sheet "Array Heatmap"; GST-tagged ING3; arrays performed twice, total replicate number n = 4
Summary of the method: as §1

TAF3 = conditions: sheet "Array Heatmap"; GST-tagged TAF3; arrays performed twice, total replicate number n = 4
Summary of the method: as §1

ING5 = conditions: sheet "Array Heatmap"; GST-tagged ING5; arrays performed twice, total replicate number n = 4
Summary of the method: as §1

MORC3 (CW) = conditions: sheet "Array Heatmap"; GST-tagged MORC3 (CW); arrays performed twice, total replicate number n = 4
Summary of the method: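 A peptide microarray holding 293 synthetic histone peptides with individual or combinatorial modifications was probed with each GST-PHD protein at 0.5 μM. Values represent mean intensity (±SD) from four replicates.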

PHF8 = conditions: sheet "Array Heatmap"; GST-tagged PHF8; arrays performed twice, total replicate number n = 4
Summary of the method: as §1

KDM4C (TTP) = conditions: sheet "Array Heatmap"; GST-tagged KDM4C (TTP); arrays performed twice, total replicate number n = 4
Summary of the method: as §1

DPF2 (PPC2W2) = conditions: sheet "Array Heatmap"; GST-tagged DPF2 (PPC2W2); arrays performed twice, total replicate number n = 4
Summary of the method: as §1

CHD4 (PPCC) = conditions: sheet "Array Heatmap"; GST-tagged CHD4 (PPCC); arrays performed twice, total replicate number n = 4
Summary of the method: as §1

AIRE (PP) = conditions: sheet "Array Heatmap"; GST-tagged AIRE (PP); arrays performed twice, total replicate number n = 4
Summary of the method: as §1

ING4 = conditions: sheet "Array Heatmap"; GST-tagged ING4; arrays performed twice, total replicate number n = 4
Summary of the method: as §1

**Q.** “H3K56ac (52-61): H3 52-61 (RRYQK(Ac)STELL; UniProt P68431 53-62, looked up, fragment)” was tested. Which “Array Heatmap signal, KDM5A (3)” value (KDM5A (3)) did it give?
**A.** The value was 0.4545.

**Q.** What about the “Array Heatmap signal, BPTF (PB)” value (BPTF (PB)) of the same substance?
**A.** Its value is 0.3515.

**Q.** What about the “Array Heatmap signal, DIDO1” value (DIDO1) of the same substance?
**A.** The value was 0.7019.

**Q.** What about the “Array Heatmap signal, KDM7A” value (KDM7A) of the same substance?
**A.** Its value is 0.3406.

**Q.** And the “Array Heatmap signal, CHD5 (PCC)” value (CHD5 (PCC))?
**A.** The value was 0.7293.

**Q.** And the “Array Heatmap signal, CHD5 (PPCC)” value (CHD5 (PPCC))?
**A.** Its value is 0.5505.

**Q.** And the “Array Heatmap signal, KDM5B (1)” value (KDM5B (1))?
**A.** Its value is 0.5943.

**Q.** And the “Array Heatmap signal, ING2” value (ING2)?
**A.** Its value is 0.6013.

**Q.** And the “Array Heatmap signal, PHRF1 (RP)” value (PHRF1 (RP))?
**A.** The value was 0.4575.

**Q.** And the “Array Heatmap signal, SP140L” value (SP140L)?
**A.** The value was 0.3649.

**Q.** And the “Array Heatmap signal, KDM5A (1)” value (KDM5A (1))?
**A.** Its value is 0.4791.

**Q.** What about the “Array Heatmap signal, PHF2” value (PHF2) of the same substance?
**A.** The value was 0.5355.

**Q.** And the “Array Heatmap signal, TRIM66 (PB)” value (TRIM66 (PB))?
**A.** The value was 0.5346.

**Q.** What about the “Array Heatmap signal, ING1” value (ING1) of the same substance?
**A.** Its value is 0.5577.

**Q.** And the “Array Heatmap signal, MLL5” value (MLL5)?
**A.** The value was 0.5378.

**Q.** And the “Array Heatmap signal, KDM5B (3)” value (KDM5B (3))?
**A.** The value was 0.4628.

**Q.** What about the “Array Heatmap signal, PHF23” value (PHF23) of the same substance?
**A.** Its value is 0.5106.

**Q.** And the “Array Heatmap signal, BAZ2B” value (BAZ2B)?
**A.** The value was 0.4578.

**Q.** And the “Array Heatmap signal, RAG2” value (RAG2)?
**A.** The value was 0.2388.

**Q.** And the “Array Heatmap signal, PHF21A” value (PHF21A)?
**A.** Its value is 0.4604.

**Q.** What about the “Array Heatmap signal, PHF13” value (PHF13) of the same substance?
**A.** The value was 0.6129.

**Q.** What about the “Array Heatmap signal, ING3” value (ING3) of the same substance?
**A.** The value was 0.475.

**Q.** And the “Array Heatmap signal, TAF3” value (TAF3)?
**A.** The value was 0.2638.

**Q.** What about the “Array Heatmap signal, ING5” value (ING5) of the same substance?
**A.** Its value is 0.365.

**Q.** And the “Array Heatmap signal, MORC3 (CW)” value (MORC3 (CW))?
**A.** Its value is 0.3491.

**Q.** What about the “Array Heatmap signal, PHF8” value (PHF8) of the same substance?
**A.** Its value is 0.3512.

**Q.** What about the “Array Heatmap signal, KDM4C (TTP)” value (KDM4C (TTP)) of the same substance?
**A.** Its value is 0.4844.

**Q.** And the “Array Heatmap signal, DPF2 (PPC2W2)” value (DPF2 (PPC2W2))?
**A.** Its value is 0.7093.

**Q.** What about the “Array Heatmap signal, CHD4 (PPCC)” value (CHD4 (PPCC)) of the same substance?
**A.** The value was 0.5636.

**Q.** What about the “Array Heatmap signal, AIRE (PP)” value (AIRE (PP)) of the same substance?
**A.** Its value is 0.4476.

**Q.** What about the “Array Heatmap signal, ING4” value (ING4) of the same substance?
**A.** Its value is 0.4689.
